Measurements published in publication PMC6429200, “Synthesis and Broad Antiviral Activity of Novel 2-aryl-isoindolin-1-ones towards Diverse Enterovirus A71 Clinical Isolates” (Molecules, 2019).

What was measured:
Type in all cases: cell-based, Enterovirus 71 (EV-A71)
EV-A71 strain H = experiment: CPE inhibition assay for anti-EV-A71 in Vero cells, H strain
Method: (§1) An in-vitro antiviral assay was established using the Africa monkey kidney cell line Vero which was infected with different EV-A71 clinical isolates (BrCr, H, Shenzhen98 and Jiangsu52). A total of 24 synthetic compounds were initially screened in such an assay to determine their inhibitory effect on virus replication at 3-fold diluted concentrations serial (400~0.18 μM). The 50% effective concentration (EC50) of each compound was calculated according to its inhibitory rate values with the Reed–Muench method. The 50% cytotoxic concentration (CC50) was defined as the concentration that inhibited 50% cellular growth in comparison with the controls. The selectivity index (SI) was calculated as CC50/EC50. […] Generally, the EV-A71 H strain was less sensitive to most of the active compounds as compared to the other virus strains.
(§2) EV-A71 strain ShenZhen98 (SZ98) was isolated from the throat swab sample of an HFMD case which occurred in 1998 in China. This was kindly provided by Dr. Qi Jin, Institute of Pathogen Biology, Chinese Academy of Medical Science and Peking Union Medical School, Beijing, China. EV-A71 strains BrCr (VR-1775) and H (VR-1432) were purchased from the ATCC. The EV-A71 strain JS52 was a kind gift from Dr. Xiangzhong Ye, Beijing Wantai Biological Pharmacy Enterprise Co., Ltd. EV-A71 were all passaged in Vero cells.
(§3) The anti-EV-A71 activity of compounds was determined by the CPE inhibition method. Briefly, cells (3 × 10^4 cells/well) were plated into 96-well culture plates for incubation for 24 h. The medium was then removed and cells were infected with EV-A71 with 100TCID50 (50% tissue culture infective doses) in serum-free medium for 1 h at 37 °C. Then, the unbound viruses were removed and various concentrations of compounds were supplemented and incubated for another 48 h. The EC50 was determined by the Reed–Muench method. The selectivity index was calculated as the ratio of CC50/EC50 [15].

[1] = tested on: EV-A71 strain ShenZhen98 (SZ98); experiment: CPE inhibition assay for anti-EV-A71 in Vero cells, Shenzhen98 strain
Method: as §1, §2, §3

[2] = tested on: EV-A71 strain Jiangsu52 (JS52); experiment: CPE inhibition assay for anti-EV-A71 in Vero cells, Jiangsu52 strain
Method: as §1, §2, §3

[3] = tested on: EV-A71 (H strain) VP1 RNA; experiment: qRT-PCR of VP1 RNA in infected Vero cells; settings: H strain MOI = 0.1, 1 h infection then A3 for 24 h, RT-qPCR
Method: (§4) To further confirm the anti-EV-A71 activity, the expression levels of VP1 RNA and protein were determined. Vero cells were infected with the H strain of EV-A71 for 1 h followed by treatment with A3 of various concentrations for another 24 h. […] Meanwhile, the antiviral efficacy of A3 was also tested using viral titer reduction assays.
Vero cells (9 × 10^5cells/well) were plated into 6-well culture plates for incubation for 16 h. The medium was removed and cells were infected with EV-A71 (H, MOI = 0.1). After 1 h, various concentrations of A3 were supplemented and incubated for another 24 h. The total RNA of the infected cells was extracted using the RNeasy Mini kit (QIAGEN) according to the manufacturer’s instructions. […] The RNA expression of EV-A71 VP1 was detected with the sense primer 5′-GATATCCCACATTCGGTGA-3′ and the antisense primer 5′-[…] -3′ targeting a conserved region of the VP1 gene. β-Actin mRNA was detected using the sense primers 5′-TGACGGGGT CACCCACA CTGTGCCCATCTA-3′ and the antisense primer 5′-CTAGAAGCATTTG CGGTGGACG ATG-3′. […] The relative amounts of EV-A71 VP1 mRNA were calculated by the comparative Ct method after normalizing the quantity of β-actin [15].
Figure 2 Compound A3 inhibited EV-A71 replication in vitro. […] Intracellular viral VP1 protein (A) and RNA (B) were determined by Western blot and qRT-PCR assays, respectively. […]

EV-A71 [4] = experiment: Viral titer reduction assay; settings: cells treated after EV-A71 infection
Method: as §4
Figure 2 Compound A3 inhibited EV-A71 replication in vitro. Vero cells (9 × 10^5 cells/well) were plated into 6-well culture plates and infected with EV-A71 (multiplicity of infection, MOI = 0.1) for 1 h. The infected cells were then treated with the indicated concentrations of A3 for 24 h. Intracellular viral VP1 protein (A) and RNA (B) were determined by Western blot and qRT-PCR assays, respectively. (C) The inhibition of a viral titer by A3. ** p < 0.01 * p < 0.05.

EV-A71 [5] = experiment: Time-of-addition assay (VP1 Western blot) in Vero cells
Method: In order to explore the inhibitory effect of compound A3 on the EV-A71 viral life cycle, EV-A71 viral protein VP1 was measured via Western blot when Vero cells were treated with compound A3 prior to, during, or after EV-A71 viral incubation (Figure 3). […] It is likely that compound A3 inhibits the EV-A71 replication by acting on the virus entry stage.
The antiviral activity of the tested compound was examined at different time periods prior to, during or after viral infection. Briefly, Vero cells (9 × 10^5 cells/well) were inoculated with EV-A71 (MOI = 1.0) at 37 °C for 1 h. The media with or without treatment were added during the periods of −24~0 h, −1~0 h, 0~10 h, 1~10 h, 2~10 h, 4~10 h, 6~10 h and 8~10 h. After each incubation period, the collected cells were washed with PBS, and then the viral protein was determined by Western blot.
Figure 3 Time-of-addition analysis of Vero cells with compound A3 treatment prior to, during or after EV-A71 infection. (A) Schematic illustration of experiment to determine which stage of EV-A71 viral cycle was inhibited by compound A3 in Vero cells. […] For all experiments, the collected cells were washed with PBS after 10 h post viral infection, and viral VP1 expression was determined via Western blot assay.

[6] = Enterovirus A, EVA71, Vero cells, 100TCID50, 48 h

## O=C1c2ccccc2CN1c1ccc(Cl)cc1 [Compound A3, 2-(4-chlorophenyl)isoindolin-1-one]
EV-A71 strain H; CC50/EC50
  H SI: 168
EV-A71 strain H; [6]
  EC50: 1.53 ± 0.16 µM
[1]; CC50/EC50
  Shenzhen98 SI: 199
[1]; [6]
  EC50: 1.29 ± 0.24 µM
[2]; CC50/EC50
  Jiangsu52 SI: 199
[2]; [6]
  EC50: 1.29 ± 0.24 µM
[3]
  VP1 RNA expression level: significantly reduced VP1 RNA expression level in a dose-dependent way
EV-A71 [4]
  viral titers: dose-dependent reduction in viral titers
EV-A71 [5]; A3 4 μM at 0, 1 and 2 h after infection (MOI = 1.0), cells collected 10 h post infection, not at the other time periods
  EV-A71 VP1 expression in Vero cells: significantly decreased
EV-A71 [5]; A3 added 24 or 1 h prior to infection
  time-of-addition: effect of pretreatment: did not display any resistance to infection by EV-A71
EV-A71 [5]; A3 added at 1 or 2 h after EV-A71 infection
  time-of-addition: efficacy, addition after infection: significant efficacy
EV-A71 [5]; A3 added during the inoculation of the virus
  time-of-addition: inhibitory activity, addition during inoculation: maximum inhibitory activity
